Source: ChEMBL document CHEMBL5143515, “Identification of new halogen-containing 2,4-diphenyl indenopyridin-5-one derivative as a boosting agent for the anticancer responses of clinically available topoisomerase inhibitors” (Eur J Med Chem, 2022)
Structures can show the parent of a compound that is named as a salt.

How the values were obtained:
[1] = molecular target: T1, DNA topoisomerase 1 (Homo sapiens) (UniProt P11387); assay: Inhibition of recombinant human topoisomerase 1 assessed as relaxation of supercoiled plasmid pBR322 DNA at 100 uM by agarose gel electrophoresis (reference value: […]%)
T1 sequence (whole entry): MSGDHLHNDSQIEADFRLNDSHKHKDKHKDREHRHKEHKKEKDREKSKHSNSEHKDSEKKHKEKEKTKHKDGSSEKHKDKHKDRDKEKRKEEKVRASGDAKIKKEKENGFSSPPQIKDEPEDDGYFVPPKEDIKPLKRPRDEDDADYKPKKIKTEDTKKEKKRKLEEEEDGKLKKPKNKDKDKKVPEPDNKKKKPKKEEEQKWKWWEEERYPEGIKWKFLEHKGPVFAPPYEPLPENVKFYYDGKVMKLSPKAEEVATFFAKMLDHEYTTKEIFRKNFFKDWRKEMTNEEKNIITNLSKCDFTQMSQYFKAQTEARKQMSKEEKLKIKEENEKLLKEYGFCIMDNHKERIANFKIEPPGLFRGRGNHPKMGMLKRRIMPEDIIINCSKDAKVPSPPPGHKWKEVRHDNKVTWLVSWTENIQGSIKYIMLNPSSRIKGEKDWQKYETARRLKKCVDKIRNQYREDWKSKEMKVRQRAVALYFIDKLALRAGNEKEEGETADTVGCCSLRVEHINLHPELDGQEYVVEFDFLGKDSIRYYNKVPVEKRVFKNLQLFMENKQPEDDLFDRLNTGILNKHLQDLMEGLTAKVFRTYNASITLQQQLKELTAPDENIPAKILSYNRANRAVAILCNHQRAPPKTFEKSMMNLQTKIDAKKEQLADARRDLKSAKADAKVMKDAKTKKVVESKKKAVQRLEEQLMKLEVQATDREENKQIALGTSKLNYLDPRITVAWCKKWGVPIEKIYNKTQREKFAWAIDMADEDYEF

[2] = molecular target: DNA topoisomerase 2-alpha (Homo sapiens) (UniProt P11388); assay: Inhibition of recombinant human topoisomerase 2alpha assessed as relaxation of supercoiled plasmid pBR322 DNA at 100 uM by agarose gel electrophoresis (reference value: 84.9%)
[3] = molecular target: DNA topoisomerase 2-alpha (Homo sapiens) (UniProt P11388); assay: Inhibition of recombinant human topoisomerase 2alpha assessed as relaxation of supercoiled plasmid pBR322 DNA at 20 uM by agarose gel electrophoresis relative to control
DU-145 = assay: Antiproliferative activity against human DU-145 cells after 72 hrs by EZ-Cytox colorimetric assay; type: functional, cell-based; details: DU-145, 72 h
HCT-15 = assay: Antiproliferative activity against human HCT-15 cells after 72 hrs by EZ-Cytox colorimetric assay; type: functional, cell-based; details: HCT-15, 72 h
HeLa = assay: Antiproliferative activity against human HeLa cells after 72 hrs by EZ-Cytox colorimetric assay; type: functional, cell-based
T47D = assay: Antiproliferative activity against human T47D cells after 72 hrs by EZ-Cytox colorimetric assay; type: functional, cell-based
[4] = molecular target: T1, DNA topoisomerase 1 (Homo sapiens); assay: Inhibition of recombinant human topoisomerase 1 assessed as relaxation of supercoiled plasmid pBR322 DNA at 100 uM by agarose gel electrophoresis (reference value: 83.2%)
[5] = molecular target: T1, DNA topoisomerase 1 (Homo sapiens); assay: Inhibition of recombinant human topoisomerase 1 assessed as relaxation of supercoiled plasmid pBR322 DNA at 20 uM by agarose gel electrophoresis (reference value: 40.4%)
[6] = molecular target: DNA topoisomerase 2-alpha (Homo sapiens) (UniProt P11388); assay: Inhibition of recombinant human topoisomerase 2alpha assessed as relaxation of supercoiled plasmid pBR322 DNA at 100 uM by agarose gel electrophoresis (reference value: 82.2%)
[7] = molecular target: DNA topoisomerase 2-alpha (Homo sapiens) (UniProt P11388); assay: Inhibition of recombinant human topoisomerase 2alpha assessed as relaxation of supercoiled plasmid pBR322 DNA at 20 uM by agarose gel electrophoresis (reference value: 48.4%)
[8] = molecular target: T1, DNA topoisomerase 1 (Homo sapiens); assay: Inhibition of recombinant human topoisomerase 1 assessed as relaxation of supercoiled plasmid pBR322 DNA at 100 uM by agarose gel electrophoresis (reference value: 90.6%)
[9] = molecular target: DNA topoisomerase 2-alpha (Homo sapiens) (UniProt P11388); assay: Inhibition of recombinant human topoisomerase 2alpha assessed as relaxation of supercoiled plasmid pBR322 DNA at 100 uM by agarose gel electrophoresis (reference value: […]%)
[10] = molecular target: T1, DNA topoisomerase 1 (Homo sapiens); assay: Inhibition of recombinant human topoisomerase 1 assessed as relaxation of supercoiled plasmid pBR322 DNA at 100 uM by agarose gel electrophoresis (reference value: 81.9%)
[11] = molecular target: T1, DNA topoisomerase 1 (Homo sapiens); assay: Inhibition of recombinant human topoisomerase 1 assessed as relaxation of supercoiled plasmid pBR322 DNA at 20 uM by agarose gel electrophoresis (reference value: 38.3%)
[12] = molecular target: DNA topoisomerase 2-alpha (Homo sapiens) (UniProt P11388); assay: Inhibition of recombinant human topoisomerase 2alpha assessed as relaxation of supercoiled plasmid pBR322 DNA at 100 uM by agarose gel electrophoresis (reference value: 81%)
[13] = molecular target: DNA topoisomerase 2-alpha (Homo sapiens) (UniProt P11388); assay: Inhibition of recombinant human topoisomerase 2alpha assessed as relaxation of supercoiled plasmid pBR322 DNA at 20 uM by agarose gel electrophoresis (reference value: […]%)

Chain of DNA topoisomerase 2-alpha (Homo sapiens) (P11388 whole entry): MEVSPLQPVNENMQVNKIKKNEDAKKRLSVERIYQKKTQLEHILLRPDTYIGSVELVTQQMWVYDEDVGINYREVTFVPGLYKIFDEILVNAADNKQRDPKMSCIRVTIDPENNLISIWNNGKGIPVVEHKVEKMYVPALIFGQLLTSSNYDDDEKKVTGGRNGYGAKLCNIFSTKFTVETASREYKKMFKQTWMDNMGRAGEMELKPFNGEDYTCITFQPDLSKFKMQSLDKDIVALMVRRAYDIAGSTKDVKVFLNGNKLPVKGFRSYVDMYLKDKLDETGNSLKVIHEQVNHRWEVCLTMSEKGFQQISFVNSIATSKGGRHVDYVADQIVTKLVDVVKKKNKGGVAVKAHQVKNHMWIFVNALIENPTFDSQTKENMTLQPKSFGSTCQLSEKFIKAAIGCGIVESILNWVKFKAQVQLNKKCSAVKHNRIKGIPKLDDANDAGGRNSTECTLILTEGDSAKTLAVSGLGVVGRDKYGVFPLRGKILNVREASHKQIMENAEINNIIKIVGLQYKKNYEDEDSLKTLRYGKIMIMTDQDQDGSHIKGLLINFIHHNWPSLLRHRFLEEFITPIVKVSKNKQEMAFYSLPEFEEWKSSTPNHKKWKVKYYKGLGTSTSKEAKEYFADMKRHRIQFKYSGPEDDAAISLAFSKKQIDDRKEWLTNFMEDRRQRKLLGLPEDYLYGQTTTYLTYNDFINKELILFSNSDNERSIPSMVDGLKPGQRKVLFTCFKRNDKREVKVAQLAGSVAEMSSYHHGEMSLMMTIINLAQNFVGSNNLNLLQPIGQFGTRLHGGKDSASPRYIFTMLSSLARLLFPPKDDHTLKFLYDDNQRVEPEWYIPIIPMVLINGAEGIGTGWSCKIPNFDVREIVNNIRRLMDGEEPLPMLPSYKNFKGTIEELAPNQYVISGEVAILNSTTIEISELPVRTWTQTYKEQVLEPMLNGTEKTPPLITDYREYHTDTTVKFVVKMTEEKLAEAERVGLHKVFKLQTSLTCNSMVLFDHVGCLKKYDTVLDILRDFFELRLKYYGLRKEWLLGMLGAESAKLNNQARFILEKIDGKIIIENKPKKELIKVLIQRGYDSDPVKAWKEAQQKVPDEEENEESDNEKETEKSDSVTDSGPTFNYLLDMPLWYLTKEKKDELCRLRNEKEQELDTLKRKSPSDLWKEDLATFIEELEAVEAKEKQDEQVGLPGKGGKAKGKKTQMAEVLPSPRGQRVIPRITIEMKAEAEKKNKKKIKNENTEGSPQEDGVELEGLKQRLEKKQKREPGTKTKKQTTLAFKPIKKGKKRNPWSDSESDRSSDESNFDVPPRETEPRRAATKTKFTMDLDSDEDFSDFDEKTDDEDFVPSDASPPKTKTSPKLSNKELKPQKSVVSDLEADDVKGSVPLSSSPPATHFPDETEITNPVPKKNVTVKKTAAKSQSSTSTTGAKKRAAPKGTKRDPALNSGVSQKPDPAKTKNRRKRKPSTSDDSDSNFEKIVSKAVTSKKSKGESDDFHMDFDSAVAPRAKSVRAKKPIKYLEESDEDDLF

SMILES | inhibition [1] [%] | inhibition [2] [%] | inhibition [3] [%] | IC50 (DU-145) [µM] | IC50 (HCT-15) [µM] | IC50 (HeLa) [µM] | IC50 (T47D) [µM] | inhibition [4] [%] | inhibition [5] [%] | inhibition [6] [%] | inhibition [7] [%] | inhibition [8] [%] | inhibition [9] [%] | inhibition [10] [%] | inhibition [11] [%] | inhibition [12] [%] | inhibition [13] [%]
OC1c2ccccc2-c2nc(-c3cccc(OC(F)(F)F)c3)cc(-c3ccccc3)c21 (centres undefined) | 18.3 | 66.7 | 12.2 | > 50 | > 50 | > 50 | 14.8 |  |  |  |  |  |  |  |  |  | 
O=C1c2ccccc2-c2nc(-c3ccccc3Br)cc(-c3ccccc3)c21 |  |  |  | 8.42 | > 50 | > 50 | > 50 | 82.9 | 0 | 93.4 | 60.4 |  |  |  |  |  | 
OC1c2ccccc2-c2nc(-c3cccc(Cl)c3)cc(-c3ccccc3)c21 (centres undefined) |  |  |  | > 50 | > 50 | > 50 | > 50 |  |  |  |  | 7.6 | 0 |  |  |  | 
O=C1c2ccccc2-c2nc(-c3ccc(Cl)cc3)cc(-c3ccccc3)c21 |  |  |  | 5.76 | > 50 | > 50 | > 50 | 80.4 | 0 | 91.3 | 60 |  |  |  |  |  | 
O=C1c2ccccc2-c2nc(-c3cccc(F)c3)cc(-c3ccccc3)c21 |  |  |  | > 50 | > 50 | > 50 | > 50 | 34.2 | 0 | 0 |  |  |  |  |  |  | 
OC1c2ccccc2-c2nc(-c3ccccc3C(F)(F)F)cc(-c3ccccc3)c21 (centres undefined) | 7.2 | 52.2 | 8.1 | > 50 | > 50 | > 50 | > 50 |  |  |  |  |  |  |  |  |  | 
OC1c2ccccc2-c2nc(-c3ccc(C(F)(F)F)cc3)cc(-c3ccccc3)c21 (centres undefined) | 13.8 | 51.2 | 9.9 | 338 | > 50 | > 50 | 24.8 |  |  |  |  |  |  |  |  |  | 
O=C1c2ccccc2-c2nc(-c3cccc(OC(F)(F)F)c3)cc(-c3ccccc3)c21 |  |  |  | 17.8 | 27.6 | > 50 | 16.8 |  |  |  |  |  |  | 100 | 8.5 | 0.5 | 
O=C1c2ccccc2-c2nc(-c3ccc(OC(F)(F)F)cc3)cc(-c3ccccc3)c21 |  |  |  | 9.63 | 9.7 | 35.5 | 2.69 |  |  |  |  |  |  | 34.3 | 3.7 | 6.5 | 
OC1c2ccccc2-c2nc(-c3cccc(C(F)(F)F)c3)cc(-c3ccccc3)c21 (centres undefined) | 25.9 | 57.3 | 9.3 | > 50 | > 50 | > 50 | > 50 |  |  |  |  |  |  |  |  |  | 
O=C1c2ccccc2-c2nc(-c3ccccc3C(F)(F)F)cc(-c3ccccc3)c21 |  |  |  | 34 | > 50 | > 50 | > 50 |  |  |  |  |  |  | 45 | 15.6 | 83.1 | 0.9
OC1c2ccccc2-c2nc(-c3ccccc3Cl)cc(-c3ccccc3)c21 (centres undefined) |  |  |  | 0.41 | 3.37 | 10.4 | 1.48 |  |  |  |  | 7.6 | 0 |  |  |  | 
OC1c2ccccc2-c2nc(-c3ccccc3Br)cc(-c3ccccc3)c21 (centres undefined) |  |  |  | 6.48 | 7.03 | 16 | 1.55 |  |  |  |  | 12.6 | 0.2 |  |  |  | 
O=C1c2ccccc2-c2nc(-c3ccc(F)cc3)cc(-c3ccccc3)c21 |  |  |  | 20.7 | 33.3 | > 50 | > 50 | 34.7 | 0 | 36.9 | 2.5 |  |  |  |  |  | 
OC1c2ccccc2-c2nc(-c3ccc(F)cc3)cc(-c3ccccc3)c21 (centres undefined) |  |  |  | > 50 | > 50 | > 50 | > 50 |  |  |  |  | 7.1 | 0 |  |  |  | 
O=C1c2ccccc2-c2nc(-c3ccc(C(F)(F)F)cc3)cc(-c3ccccc3)c21 |  |  |  | 42.2 | 20.5 | > 50 | > 50 |  |  |  |  |  |  | 89.8 | 8.1 | 57.2 | 0.3
OC1c2ccccc2-c2nc(-c3cccc(F)c3)cc(-c3ccccc3)c21 (centres undefined) |  |  |  | > 50 | > 50 | > 50 | > 50 |  |  |  |  | 6.1 | 0 |  |  |  | 
OC1c2ccccc2-c2nc(-c3cccc(Br)c3)cc(-c3ccccc3)c21 (centres undefined) |  |  |  | 43.2 | > 50 | > 50 | > 50 |  |  |  |  | 8.6 | 0 |  |  |  | 
OC1c2ccccc2-c2nc(-c3ccc(OC(F)(F)F)cc3)cc(-c3ccccc3)c21 (centres undefined) | 26.8 | 61.2 | 8.7 | > 50 | > 50 | > 50 | > 50 |  |  |  |  |  |  |  |  |  | 
OC1c2ccccc2-c2nc(-c3ccc(Br)cc3)cc(-c3ccccc3)c21 (centres undefined) |  |  |  | 2.11 | > 50 | > 50 | 28.7 |  |  |  |  | 10.5 | 0 |  |  |  | 
O=C1c2ccccc2-c2nc(-c3ccccc3Cl)cc(-c3ccccc3)c21 |  |  |  | > 50 | > 50 | > 50 | > 50 | 66.7 | 0 | 93.3 | 71.8 |  |  |  |  |  | 
O=C1c2ccccc2-c2nc(-c3ccccc3OC(F)(F)F)cc(-c3ccccc3)c21 |  |  |  | 10.7 | 14.7 | > 50 | > 50 |  |  |  |  |  |  | 35 | 0 | 0.6 | 
O=C1c2ccccc2-c2nc(-c3cccc(C(F)(F)F)c3)cc(-c3ccccc3)c21 |  |  |  | 15.2 | 21.5 | > 50 | > 50 |  |  |  |  |  |  | 81.9 | 22.5 | 92.2 | 3.4
O=C1c2ccccc2-c2nc(-c3ccccc3F)cc(-c3ccccc3)c21 |  |  |  | > 50 | 49.2 | > 50 | > 50 | 26.7 |  | 0 |  |  |  |  |  |  | 
OC1c2ccccc2-c2nc(-c3ccc(Cl)cc3)cc(-c3ccccc3)c21 (centres undefined) |  |  |  | 35.1 | > 50 | > 50 | > 50 |  |  |  |  | 6.3 | 0 |  |  |  | 
COc1cccc2c1C(=O)c1c(O)c3c(c(O)c1C2=O)C[C@@](O)(C(=O)CO)C[C@@H]3O[C@H]1C[C@H](N)[C@H](O)[C@H](C)O1 [DOXORUBICIN HYDROCHLORIDE] |  |  |  | 2.99 | 136 | 1.36 | 1.48 |  |  |  |  |  |  |  |  |  | 
O=C1c2ccccc2-c2nc(-c3cccc(Br)c3)cc(-c3ccccc3)c21 |  |  |  | 9.48 | 17.9 | 20.2 | 28 | 82.9 | 0 | 83.8 | 5.3 |  |  |  |  |  | 
O=C1c2ccccc2-c2nc(-c3cccc(Cl)c3)cc(-c3ccccc3)c21 |  |  |  | 14.4 | 23.4 | > 50 | > 50 | 85.7 | 0 | 98.1 | 89.2 |  |  |  |  |  | 
OC1c2ccccc2-c2nc(-c3ccccc3F)cc(-c3ccccc3)c21 (centres undefined) |  |  |  | > 50 | > 50 | > 50 | > 50 |  |  |  |  | 6.7 | 0 |  |  |  | 
